# From patent US20190343908A1, “Therapeutic Combination for the Treatment of Cancer” (Nerium Biotechnology Inc., priority 2011, published 2019)
# Columns and labels:
# [1] = test system: A375 melanoma cancer cell line; assay: Sulforhodamine B viability assay, A375; type: cell-based, human; conditions: for ABSORBANCE: 0.1 μg/mL cisplatin; for Average absorbance, SRB 24 h / Average absorbance, SRB 48 h / Average absorbance, SRB 72 h: A375 Run 1
# From the text: Three different viability assays were chosen to complement each other and yielded results dependent on concentration and cell line: the Methyl Tetrazolium dye assay, the Sulforhodamine B fluorescent dye assay, and the Crystal Violet dye assay.
# The Sulforhodamine B and Crystal Violet assays provide information about protein and were used to complement the Methyl-Tetrazolium dye assay. […] It is used for the quantification of cellular proteins of cultured cells. The assay using Crystal Violet, a dye that binds electrostatically to proteins and stains DNA, provides a reliable, simple assay for measuring viability of cells.
# (§1) The Methyl Tetrazolium, Sulforhodamine B, and Crystal Violet assays were used to assess cell viabilities. The incubation times were 24 hours, 48 hours, and 72 hours. The Nerium oleander extract Anvirzel™ (a hot water extract of oleander obtained from Salud Integral, Honduras) was tested in concentrations ranging from 0.01 ng/mL to 10 ng/mL.
# (§2) Cells were detached by trypsinization (Trypsin-0.25% EDTA, Invitrogen, 25200-072) during the logarithmic phase of culture growth and plated in 96-well plates (18.000 cells/well) (Corning, Costar 359) in a final volume of 200 μl of medium per well. […] The absorbance was measured after 24 hours, 48 hours, and 72 hours of incubation.
# For the Sulforhodamine B assay, 96-well plates were fixed by 10% trichloroacetic acid (Fluka, 91228) and were incubated at 4° C. for 1 hour. Afterwards, plates were rinsed with water and cells were stained with 0.4% Sulforhodamine B (Sigma, 341738), dissolved in 1% acetic acid (Carlo Ebra, 401422) for 15 minutes at room temperature (RT). The unbound stain was washed twice with 1% acetic acid. Finally, 10 mM Tris Buffer pH 10.5 (Sigma, T6791) was added to dissolve the dye.
# (§3) The optical density of each plate was measured on a μQuant spectrophotometer and the data were analyzed with Gen5 software (μQuant Biomolecular Spectrophotometer MQX200 and Gen5™ Microplate Data Collection & Analysis software, BioTek® Instruments. Inc, April 2008). Absorbance was measured at 570 nm for all assays and a second wavelength was measured in order to subtract noise. For the Methyl-Tetrazolium assay this second wavelength was 630 nm and for the Sulforhodamine B and Crystal Violet assays it was 690 nm.
# [2] = test system: LNCaP prostate cancer cell line; assay: Methyl-Tetrazolium viability assay, LNCaP; type: cell-based, human; conditions: for ABSORBANCE: LNCaP, 0.1 μg/mL cisplatin
# From the text: The Methyl-Tetrazolium dye assay measures the activity of enzymes in mitochondria. The dye precursor is taken up by cells, where it undergoes reduction to the purple formazan. It measures only the mitochondrial activity and, thus, it is not always a reliable indication of whether the cells themselves are alive or dead, since even a recently dead cell has […] enzyme activity in mitochondria. Intracellular glucose concentration, pH, and time before assay all affect the measurements.
# as §1, §2
# For the Methyl-Tetrazolium assay, the dye (Sigma, M2128; 5 mg/mL, diluted in phosphate-buffered saline) was added to each well and plates were incubated for 3 hours at 37° C. After the end of the incubation period, the medium was discarded and the cells were rinsed with phosphate-buffered saline. Finally, the formazan crystals were dissolved in dimethylsulphoxide (Sigma, D4540).
# as §3
compound,measurement,setting,value
N.N.[Cl][Pt][Cl] [cisplatin],ABSORBANCE,"[1]; A375, 48 h",2.421
same,ABSORBANCE,"[1]; A375, 72 h",2.487
same,"Average absorbance, SRB 24 h",[1]; 0.1 μg/ml CDDP,2.072
same,"Average absorbance, SRB 48 h",[1]; 0.1 μg/ml CDDP,2.421
same,"Average absorbance, SRB 72 h",[1]; 0.1 μg/ml CDDP,2.487
same,"Average absorbance, SRB 24 h",[1]; 1 μg/ml CDDP,1.579
same,"Average absorbance, SRB 48 h",[1]; 1 μg/ml CDDP,1.987
same,"Average absorbance, SRB 72 h",[1]; 1 μg/ml CDDP,2.256
same,"Average absorbance, SRB 24 h",[1]; 10 μg/ml CDDP,1.117
same,"Average absorbance, SRB 48 h",[1]; 10 μg/ml CDDP,1.678
same,"Average absorbance, SRB 72 h",[1]; 10 μg/ml CDDP,1.913
same,"Average absorbance, SRB 24 h",[1]; 100 μg/ml CDDP,1.283
same,"Average absorbance, SRB 48 h",[1]; 100 μg/ml CDDP,1.782
same,"Average absorbance, SRB 72 h",[1]; 100 μg/ml CDDP,1.319
same,Average absorbance SRB,"[1]; A375 Run 2, 24 h, 0.1 μg/ml CDDP",2.189
same,Average absorbance SRB,"[1]; A375 Run 2, 24 h, 1 μg/ml CDDP",1.916
same,Average absorbance SRB,"[1]; A375 Run 2, 24 h, 10 μg/ml CDDP",1.827
same,Average absorbance SRB,"[1]; A375 Run 2, 24 h, 100 μg/ml CDDP",1.939
same,Average absorbance SRB,"[1]; A375 Run 2, 48 h, 0.1 μg/ml CDDP",2.571
same,Average absorbance SRB,"[1]; A375 Run 2, 48 h, 1 μg/ml CDDP",1.366
same,Average absorbance SRB,"[1]; A375 Run 2, 48 h, 10 μg/ml CDDP",1.265
same,Average absorbance SRB,"[1]; A375 Run 2, 48 h, 100 μg/ml CDDP",1.293
same,Average absorbance SRB,"[1]; A375 Run 2, 72 h, 0.1 μg/ml CDDP",2.634
same,Average absorbance SRB,"[1]; A375 Run 2, 72 h, 1 μg/ml CDDP",2.085
same,Average absorbance SRB,"[1]; A375 Run 2, 72 h, 10 μg/ml CDDP",1.617
same,Average absorbance SRB,"[1]; A375 Run 2, 72 h, 100 μg/ml CDDP",1.491
same,Average absorbance SRB,"[1]; A375 Run 3, 24 h, 0.1 μg/ml CDDP",1.597
same,Average absorbance SRB,"[1]; A375 Run 3, 24 h, 1 μg/ml CDDP",1.126
same,Average absorbance SRB,"[1]; A375 Run 3, 24 h, 10 μg/ml CDDP",1.294
same,Average absorbance SRB,"[1]; A375 Run 3, 24 h, 100 μg/ml CDDP",0.982
same,Average absorbance SRB,"[1]; A375 Run 3, 48 h, 0.1 μg/ml CDDP",2.175
same,Average absorbance SRB,"[1]; A375 Run 3, 48 h, 1 μg/ml CDDP",1.83
same,Average absorbance SRB,"[1]; A375 Run 3, 48 h, 10 μg/ml CDDP",1.586
same,Average absorbance SRB,"[1]; A375 Run 3, 48 h, 100 μg/ml CDDP",1.572
same,Average absorbance SRB,"[1]; A375 Run 3, 72 h, 0.1 μg/ml CDDP",2.184
same,Average absorbance SRB,"[1]; A375 Run 3, 72 h, 1 μg/ml CDDP",1.491
same,Average absorbance SRB,"[1]; A375 Run 3, 72 h, 10 μg/ml CDDP",1.571
same,Average absorbance SRB,"[1]; A375 Run 3, 72 h, 100 μg/ml CDDP",1.271
same,MTT Average,"[2]; LNCaP Run 3, 24 h, 0.1 μg/ml CDDP",0.11
same,MTT Average,"[2]; LNCaP Run 3, 24 h, 1 μg/ml CDDP",0.008
same,MTT Average,"[2]; LNCaP Run 3, 24 h, 10 μg/ml CDDP",0.017
same,MTT Average,"[2]; LNCaP Run 3, 24 h, 100 μg/ml CDDP",0.006
same,MTT Average,"[2]; LNCaP Run 3, 48 h, 0.1 μg/ml CDDP",0.157
same,MTT Average,"[2]; LNCaP Run 3, 48 h, 1 μg/ml CDDP",0.011
same,MTT Average,"[2]; LNCaP Run 3, 48 h, 10 μg/ml CDDP",0.009
same,MTT Average,"[2]; LNCaP Run 3, 48 h, 100 μg/ml CDDP",0.009
same,MTT Average,"[2]; LNCaP Run 3, 72 h, 0.1 μg/ml CDDP",0.171
same,MTT Average,"[2]; LNCaP Run 3, 72 h, 1 μg/ml CDDP",0.01
same,MTT Average,"[2]; LNCaP Run 3, 72 h, 10 μg/ml CDDP",0.009
same,MTT Average,"[2]; LNCaP Run 3, 72 h, 100 μg/ml CDDP",0.008
same,ABSORBANCE,[2]; 48 h,0.161
same,ABSORBANCE,[2]; 72 h,0.17
same,Average MTT 24 h,"[2]; Run 1, 0.1 μg/ml CDDP",0.061
same,Average MTT 48 h,"[2]; Run 1, 0.1 μg/ml CDDP",0.116
same,Average MTT 24 h,"[2]; Run 1, 1 μg/ml CDDP",0.012
same,Average MTT 48 h,"[2]; Run 1, 1 μg/ml CDDP",0.015
same,Average MTT 72 h,"[2]; Run 1, 1 μg/ml CDDP",0.016
same,Average MTT 24 h,"[2]; Run 1, 10 μg/ml CDDP",0.02
same,Average MTT 48 h,"[2]; Run 1, 10 μg/ml CDDP",0.011
same,Average MTT 72 h,"[2]; Run 1, 10 μg/ml CDDP",0.01
same,Average MTT 24 h,"[2]; Run 1, 100 μg/ml CDDP",0.011
same,Average MTT 48 h,"[2]; Run 1, 100 μg/ml CDDP",0.017
same,Average MTT 72 h,"[2]; Run 1, 100 μg/ml CDDP",0.01
same,Average MTT 24 h,"[2]; Run 2, 0.1 μg/ml CDDP",0.136
same,Average MTT 48 h,"[2]; Run 2, 0.1 μg/ml CDDP",0.161
same,Average MTT 72 h,"[2]; Run 2, 0.1 μg/ml CDDP",0.17
same,Average MTT 24 h,"[2]; Run 2, 1 μg/ml CDDP",0.01
same,Average MTT 48 h,"[2]; Run 2, 1 μg/ml CDDP",0.016
same,Average MTT 72 h,"[2]; Run 2, 1 μg/ml CDDP",0.026
same,Average MTT 24 h,"[2]; Run 2, 10 μg/ml CDDP",0.014
same,Average MTT 48 h,"[2]; Run 2, 10 μg/ml CDDP",0.015
same,Average MTT 72 h,"[2]; Run 2, 10 μg/ml CDDP",0.012
same,Average MTT 24 h,"[2]; Run 2, 100 μg/ml CDDP",0.017
same,Average MTT 48 h,"[2]; Run 2, 100 μg/ml CDDP",0.015
same,Average MTT 72 h,"[2]; Run 2, 100 μg/ml CDDP",0.012
